Assay: xn = mol fraction of the nth substance listed

BrC(Br)Br + CO
318 K, 101.33 kPa
Conditions | viscosity [mPa·s]
x1 = 0.163 | 0.6935
x1 = 0.3122 | 0.8844
x1 = 0.4563 | 1.043
x1 = 0.7234 | 1.261
x1 = 0.8987 | 1.383

C=Cc1ccccc1 + CO
viscosity [mPa·s], 101.33 kPa
Conditions | x1 = 0.1005 | x1 = 0.192 | x1 = 0.3007 | x1 = 0.4018 | x1 = 0.4981 | x1 = 0.5994 | x1 = 0.7011 | x1 = 0.8049 | x1 = 0.8981
298.15 K | 0.591 | 0.623 | 0.65 | 0.669 | 0.679 | 0.686 | 0.692 | 0.701 | 0.706
303.15 K | 0.55 | 0.583 | 0.608 | 0.618 | 0.634 | 0.642 | 0.646 | 0.655 | 0.661
308.15 K | 0.515 | 0.543 | 0.569 | 0.587 | 0.594 | 0.598 | 0.602 | 0.61 | 0.617

CCC(C)(C)OC + CO
298.15 K, 101.33 kPa
Conditions | viscosity [mPa·s]
x1 = 0.005 | 0.55
x1 = 0.0339 | 0.554
x1 = 0.0488 | 0.556
x1 = 0.0714 | 0.557
x1 = 0.1129 | 0.555
x1 = 0.1508 | 0.552
x1 = 0.1987 | 0.546
x1 = 0.2009 | 0.546
x1 = 0.2338 | 0.541
x1 = 0.2861 | 0.532
x1 = 0.3409 | 0.524
x1 = 0.379 | 0.516
x1 = 0.4252 | 0.508
x1 = 0.4676 | 0.5
x1 = 0.5142 | 0.491
x1 = 0.5503 | 0.486
x1 = 0.6236 | 0.477
x1 = 0.6574 | 0.473
x1 = 0.6944 | 0.468
x1 = 0.7437 | 0.462
x1 = 0.7936 | 0.457
x1 = 0.8642 | 0.45
x1 = 0.9029 | 0.446

BrC(Br)Br + COC(C)=O
viscosity [mPa·s], 101 kPa
Conditions | x1 = 0.0997 | x1 = 0.1981 | x1 = 0.2985 | x1 = 0.406 | x1 = 0.5052 | x1 = 0.6046 | x1 = 0.7016 | x1 = 0.7984 | x1 = 0.89
298.15 K | 0.4806 | – | 0.7148 | 0.8716 | 1.039 | 1.215 | 1.403 | 1.6 | 1.783
303.15 K | 0.4671 | 0.5871 | 0.6791 | 0.8247 | 0.9763 | 1.141 | 1.297 | 1.5 | 1.671
308.15 K | 0.4465 | 0.5511 | 0.6431 | 0.7797 | 0.9244 | 1.07 | 1.207 | 1.405 | 1.57
313.15 K | 0.4263 | 0.511 | 0.6007 | 0.7368 | 0.8701 | 1.009 | 1.141 | 1.317 | 1.471

CC(C)(C)N + COC(C)=O
303.15 K, 101 kPa
Conditions | viscosity [mPa·s]
x1 = 0.1513 | 0.3868
x1 = 0.247 | 0.4006
x1 = 0.3175 | 0.4155
x1 = 0.4152 | 0.4301
x1 = 0.5361 | 0.4379
x1 = 0.7023 | 0.4413
x1 = 0.771 | 0.4432
x1 = 0.8641 | 0.4438

BrC(Br)Br + COCCO
viscosity [mPa·s], 101.3 kPa
Conditions | x1 = 0.097 | x1 = 0.198 | x1 = 0.297 | x1 = 0.401 | x1 = 0.499 | x1 = 0.6 | x1 = 0.697 | x1 = 0.798 | x1 = 0.9
298.15 K | 1.922 | 2.097 | 2.22 | 2.27 | 2.245 | 2.183 | 2.094 | 2.003 | 1.932
303.15 K | 1.719 | 1.872 | 1.984 | 2.03 | 2.014 | 1.972 | 1.909 | 1.842 | 1.794
308.15 K | 1.549 | 1.68 | 1.774 | 1.825 | 1.817 | 1.792 | 1.748 | 1.702 | 1.676

CC(C)(C)N + COCCO
308.15 K, 101 kPa
Conditions | viscosity [mPa·s]
x2 = 0.13 | 0.5293
x2 = 0.2516 | 0.6631
x2 = 0.3656 | 0.7913
x2 = 0.4727 | 0.9167
x2 = 0.5735 | 1.035
x2 = 0.6668 | 1.083
x2 = 0.7583 | 1.115
x2 = 0.8432 | 1.152
x2 = 0.9237 | 1.187

BrC(Br)Br + CS(C)=O
Conditions | viscosity [mPa·s]
298 K, 101.3 kPa, x1 = 0.0899 | 2.155
298 K, 101.3 kPa, x1 = 0.1708 | 2.427
298 K, 101.3 kPa, x1 = 0.3448 | 2.816
298 K, 101.3 kPa, x1 = 0.4446 | 2.945
298 K, 101.3 kPa, x1 = 0.5453 | 2.944
298 K, 101.3 kPa, x1 = 0.6466 | 2.762
298 K, 101.3 kPa, x1 = 0.7553 | 2.544
298 K, 101.3 kPa, x1 = 0.8619 | 2.192
318 K, 101.33 kPa, x1 = 0.1216 | 1.568
318 K, 101.33 kPa, x1 = 0.2541 | 1.787
318 K, 101.33 kPa, x1 = 0.443 | 1.978
318 K, 101.33 kPa, x1 = 0.5441 | 1.982
318 K, 101.33 kPa, x1 = 0.5955 | 1.983
318 K, 101.33 kPa, x1 = 0.8193 | 1.716

C=Cc1ccccc1 + CS(C)=O
viscosity [mPa·s], 101.33 kPa
Conditions | x1 = 0.1017 | x1 = 0.2022 | x1 = 0.3096 | x1 = 0.3987 | x1 = 0.501 | x1 = 0.6007 | x1 = 0.6968 | x1 = 0.801 | x1 = 0.896
298.15 K | 1.642 | 1.475 | 1.326 | 1.237 | 1.139 | 1.058 | 0.982 | 0.887 | 0.802
303.15 K | 1.482 | 1.343 | 1.191 | 1.112 | 1.044 | 0.976 | 0.91 | 0.827 | 0.749
308.15 K | 1.335 | 1.204 | 1.083 | 1.014 | 0.957 | 0.899 | 0.837 | 0.763 | 0.7

CCCCCCCCO + CS(C)=O
101 kPa
Conditions | viscosity [mPa·s]
303.15 K, x2 = 0.1888 | 4.267
303.15 K, x2 = 0.3612 | 3.296
303.15 K, x2 = 0.519 | 2.593
303.15 K, x2 = 0.6642 | 2.26
303.15 K, x2 = 0.7982 | 1.965
303.15 K, x2 = 0.9223 | 1.757
313 K, x2 = 0.1243 | 3.69
313 K, x2 = 0.2177 | 3.282
313 K, x2 = 0.4192 | 2.668
313 K, x2 = 0.5194 | 2.442
313 K, x2 = 0.6221 | 2.22
313 K, x2 = 0.714 | 2.034
313 K, x2 = 0.8145 | 1.894
313 K, x2 = 0.902 | 1.664

O=c1oc2ccccc2c(O)c1C(c1ccccc1)c1c(O)c2ccccc2oc1=O + CS(C)=O
viscosity [mPa·s], 100 kPa
Conditions | x1 = 0.0007822 | x1 = 0.001562 | x1 = 0.002337 | x1 = 0.003116 | x1 = 0.003894 | x1 = 0.004664
293.15 K | 2.346 | 2.469 | 2.592 | 2.715 | 2.839 | 2.963
298.15 K | 2.068 | 2.179 | 2.286 | 2.394 | 2.502 | 2.611
303.15 K | 1.883 | 1.966 | 2.063 | 2.161 | 2.256 | 2.352
308.15 K | 1.684 | 1.755 | 1.825 | 1.909 | 1.992 | 2.076
313.15 K | 1.519 | 1.578 | 1.638 | 1.713 | 1.789 | 1.862

CCC(C)(C)OC + Cc1cccc(C)c1
viscosity [mPa·s], 100 kPa
Conditions | x1 = 0.0521 | x1 = 0.1462 | x1 = 0.2667 | x1 = 0.4165 | x1 = 0.4774 | x1 = 0.5331 | x1 = 0.6068 | x1 = 0.7371 | x1 = 0.8642 | x1 = 0.9512
293.15 K | 0.603 | 0.584 | 0.563 | 0.539 | 0.53 | 0.521 | 0.509 | 0.487 | 0.464 | 0.448
303.15 K | 0.542 | 0.531 | 0.518 | 0.499 | 0.489 | 0.48 | 0.468 | 0.447 | 0.426 | 0.417
313.15 K | 0.484 | 0.47 | 0.455 | 0.439 | 0.433 | 0.427 | 0.419 | 0.404 | 0.386 | 0.375

BrC(Br)Br + Cc1ccccc1
viscosity [mPa·s], 101 kPa
Conditions | x1 = 0.1032 | x1 = 0.1993 | x1 = 0.2989 | x1 = 0.3999 | x1 = 0.4985 | x1 = 0.5956 | x1 = 0.6977 | x1 = 0.7959 | x1 = 0.8985
298.15 K | 0.6593 | 0.7557 | 0.8686 | 0.9945 | 1.136 | 1.287 | 1.449 | 1.622 | 1.801
303.15 K | 0.6236 | 0.7133 | 0.817 | 0.936 | 1.068 | 1.207 | 1.358 | 1.519 | 1.688
308.15 K | 0.5877 | 0.6722 | 0.7592 | 0.8765 | 1.001 | 1.131 | 1.273 | 1.426 | 1.583
313.15 K | 0.5544 | 0.6324 | 0.7238 | 0.8262 | 0.939 | 1.061 | 1.194 | 1.335 | 1.483

CCCCCCCCO + Cc1ccccc1
viscosity [mPa·s], 101 kPa
Conditions | 298.15 K | 308.15 K
x2 = 0.0495 | 6.43 | 4.918
x2 = 0.1104 | 5.45 | 4.28
x2 = 0.1513 | 4.841 | 3.853
x2 = 0.1999 | 4.2 | 3.402
x2 = 0.2517 | 3.646 | 3.009
x2 = 0.2997 | 3.252 | 2.674
x2 = 0.356 | 2.717 | 2.317
x2 = 0.3998 | 2.395 | 2.048
x2 = 0.4506 | 2.092 | 1.825
x2 = 0.5001 | 1.84 | 1.637
x2 = 0.5513 | 1.598 | 1.42
x2 = 0.6014 | 1.404 | 1.272
x2 = 0.6495 | 1.244 | 1.119
x2 = 0.6997 | 1.098 | 1.015
x2 = 0.7569 | 0.96 | 0.87
x2 = 0.8012 | 0.859 | 0.779
x2 = 0.8527 | 0.769 | 0.699
x2 = 0.9 | 0.674 | 0.61
x2 = 0.954 | 0.612 | 0.554
